Assay results published in patent US9469854B2, “Pharmaceutical composition for treating liver diseases” (Academia Sinica, priority 2014, dated 2016).

Columns and labels:
hsa-miR-21-3p = experiment: miRNA microarray profiling of berberine-treated primary human hepatocytes; assay type: cell-based; settings: PHHs from 3 donors, 40 μM berberine, 2 h
Procedure: A 50 mM stock solution of berberine chloride (Sigma-Aldrich) was prepared in dimethyl sulfoxide (DMSO). […]
The miRNA profiling was performed using an Agilent human miRNA Microarray R14 V2 containing 866 human miRNAs. […] Microarrays were scanned following the Agilent microarray scanner protocol, and image analysis and quantification were performed using the Agilent Feature Extraction software (Agilent Technologies). […]

miR-21-3p = experiment: qRT-PCR microRNA assay in primary human hepatocytes; assay type: cell-based; settings: PHHs, 40 μM berberine, 2 h
Procedure: The primary human hepatocytes from Caucasian donors were purchased from Invitrogen and cultured following the manufacturer's instructions. The hepatocytes were thawed and transferred into cryopreserved hepatocytes recovery medium (CM7000, Invitrogen), centrifuging at room temperature, 100×g for 10 min. Then, the hepatocytes were diluted to seeding density with plating medium (CM3000, Invitrogen) and added into collagen I-coated plates (Invitrogen). These plates were incubated at 37° C. for 4-6 hours under 5% CO2 for forming a monolayer. Then, plating medium was replaced by overlay incubation medium (CM4000 and 0.35 mg/mL Geltrex™ Matrix, Invitrogen), and the incubation medium was replaced daily. In the following examples, hepatocytes form 3 to 4 donors were used for experiments. A 50 mM stock solution of berberine chloride (Sigma-Aldrich) was prepared in dimethyl sulfoxide (DMSO). Cells were treated with 40 μM of berberine chloride or 0.08% DMSO as the control. For induction of lipid droplets formation in cultured cells, 200 μM of oleic acid (Sigma-Aldrich) was added into the culture medium for 24 h. Total RNA was extracted using a TRIZOL reagent (Invitrogen) according to the manufacturer's protocol. The total RNA quantity was measured using a NanoDrop ND-1000 spectrophotometer (Nanodrop Technologies). […]

intracellular SAM = experiment: Measurement of intracellular SAM concentration in HepG2 cells; assay type: cell-based, human
Procedure: […] The intracellular SAM of 5×10^4 HepG2 cells pellet was resuspended in […] of an extraction solution (0.2% perchloric acid plus 0.08% (v/v) 2-mercaptoethanol in ddH2O). Cells were incubated at room temperature for 1 h and vortexed every 5 min. The suspension was centrifuged at 4° C. at 10000×g for 5 min, and then the supernatant was collected. SAM levels in the supernatants were quantified using the Bridge-It SAM fluorescence assay kit (Mediomics) and detected using SpectraMax plate reader (Molecular Devices) according to the manufacturer's instructions.

HepG2 cells [1] = experiment: BrdU incorporation cell proliferation assay; assay type: cell-based, human; settings: HepG2, mimic 24 h plus additional 24 h BrdU, vs NC mimic
Procedure: The HepG2 cells were seeded at a density of 1×10^4 cells per well in a 96-well culture plate the day before transfection. After transfection with 50 nM of hsa-miR-21-3p mimic or the negative-control mimic for 24 h, the cultured media were refreshed with complete media containing the BrdU reagent, and incubated for an additional 24 hour for BrdU incorporation. The BrdU incorporation was quantified by using the BrdU cell proliferation colorimetric ELISA kit (abcam) according to the manufacturer's protocol and detected using the MRX II microplate reader (DYNEX).

[2] = system: intracellular malonyl-CoA; experiment: Measurement of intracellular malonyl-CoA concentration in PHH cells; assay type: cell-based, human; settings: 72-h mimic transfection
Procedure: After transfection with 50 nM of miR-21-3p mimic or the negative-control mimic for 72 h, the PHH cells and HepG2 cells were trypsinized. The intracellular malonyl-CoA concentration was measured using the malonyl-CoA ELISA Kit (MyBioSource) according to the manufacturer's instructions.

MAT2A 3′ UTR = experiment: Dual luciferase reporter assay in HepG2 cells; assay type: cell-based, human
Procedure: (§1) Full-length 3′ UTRs of MAT2A and MAT2B were amplified from the genomic DNA of HepG2 cells through PCR.
(§2) The PCR products were then cloned into the pMIR-REPORT Luciferase miRNA Expression Reporter Vector (Invitrogen), and all inserted sequences in the 3′ UTR constructs were checked using the ABI PRISM DNA sequencer.
(§3) The mutagenesis of the target sequences of hsa-miR-21-3p in MAT2A and MAT2B 3′ UTRs was performed using the QuikChange site-directed mutagenesis kit (Agilent) according to the manufacturer's standard protocol.
(§4) All mutated sequences, including Site 1, Site 2 and the double mutation of the MAT2A and the 3′ UTR mutant construct of MAT2B, were checked through DNA sequencing.
(§5) The HEK-293T and HepG2 cells were seeded at a density of 5×10^4 cells per well in a 24-well culture plate the day before transfection. The HEK-293T and HepG2 cells were tri-transfected with (1) any one of the above-mentioned pMIR-REPORT-3′ UTR construction (300 ng), (2) the control Renilla luciferase reporter plasmid pRL-TK from Promega (10 ng), and (3) 50 nM of hsa-miR-21-3p mimic or negative-control mimic by using the Lipofectamine 2000 transfection reagent (Invitrogen) according to the manufacturer's instructions. Luciferase assays were performed after transfection for 48 h by using the Dual Luciferase reporter assay kit (Promega) and the Paradigm detection platform (Beckman) according to the manufacturer's protocol. The firefly luciferase activity was normalized relative to the Renilla luciferase activity.

MAT2B 3′ UTR = experiment: Dual luciferase reporter assay in HepG2 cells; assay type: cell-based, human
Procedure: as §1, §2, §3, §4, §5

HepG2 cells [3] = experiment: Apoptosis (sub-G1 population) by flow cytometry with PI staining; assay type: cell-based, human; settings: HepG2, 50 nM mimic transfection 72 h vs NC mimic
Procedure: After transfection with 50 nM of hsa-miR-21-3p mimic or the negative-control mimic for 72 h, the HepG2 cells were trypsinized and counted. Apoptosis was detected by measuring the sub-G1 population by using flow cytometry with propidium iodide (PI) staining. In brief, the cells were fixed in 70% ethanol on ice for 15 min, and stained with the PI staining solution (20 μg/mL PI, 0.1% Triton-X 100, and 0.2 mg/mL RNase A in PBS) for 30 min at room temperature and analyzed using CyAn ADP (Beckman Coulter) flow cytometry with Summit software.

ACACA mRNA = experiment: mRNA stability assay; assay type: cell-based, human
[4] = HepG2, wild-type 3′ UTR, 50 nM mimic, 48 h

Row | Compound | hsa-miR-21-3p expression increase (miRNA microarray), mean (hsa-miR-21-3p) | miR-21-3p expression (qRT-PCR) (miR-21-3p) | intracellular SAM contents increase (intracellular SAM; HepG2, mimic transfection 48 h vs NC mimic) | intracellular SAM contents increase (intracellular SAM; HepG2, mimic transfection 72 h vs NC mimic) | inhibition of cellular proliferation (BrdU incorporation) (HepG2 cells [1]) | intracellular malonyl-CoA concentration decrease [2] | luciferase reporter expression decrease, Site 1 mutated MAT2A 3′ UTR (MAT2A 3′ UTR; HepG2, Site 1 (+180-200) mutated) | luciferase reporter expression decrease, MAT2A 3′ UTR (MAT2A 3′ UTR; [4]) | luciferase reporter expression change, Site 2 mutated MAT2A 3′ UTR (MAT2A 3′ UTR; Site 2 (+1267-1288) mutated, cells not named in sentence (FIG. 5C: HEK293T and HepG2)) | luciferase reporter expression change, double-mutated MAT2A 3′ UTR (MAT2A 3′ UTR; both Site 1 and Site 2 mutated, cells not named in sentence (FIG. 5C: HEK293T and HepG2)) | luciferase reporter expression change, mutated MAT2B 3′ UTR (MAT2B 3′ UTR; HepG2, seed match (+399-418) mutated) | luciferase reporter expression decrease, MAT2B 3′ UTR (MAT2B 3′ UTR; [4]) | apoptosis (sub-G1 population) (HepG2 cells [3]) | half-life of ACACA mRNA (ACACA mRNA)
1 | COc1ccc2cc3[n+](cc2c1OC)CCc1cc2c(cc1-3)OCO2 [berberine] | 3.36 fold | up-regulation |  |  |  |  |  |  |  |  |  |  |  | 
2 | hsa-miR-21-3p (CAACACCAGUCGAUGGGCUGU; listed as RNA, chemistry not given here) [miR-21-3p mimic] |  |  | 1.6 fold | 3.0 fold | 1.7 fold | 2.2 fold | 1.5 fold | 1.5 fold | did not notably change | did not notably change | remained unchanged | 1.4 fold | induced apoptosis | reduced the half-life of ACACA mRNA
